Measured values taken from US9744189B1, “Compositions of lithium salts and methods of use” (University of South Florida, priority 2013, dated 2017).
Read-outs that look alike come from different tables or passages of the source.

Tests used:
[1] = for AUC(0-72): 0-72 h; for TMAX: noncompartmental analysis; for time of peak brain lithium level (FIG. 4-5): post-dose
Protocol: (§1) Male Sprague Dawley rats weighing 200-250 grams were housed in a vivarium with a 12 hour light-dark cycle. The rats were allowed to acclimate for a period of one week before any experiments were carried out, and were allowed free access to food and water throughout the experiment.
(§2) Animals in each treatment group were euthanized at 2, 24, 48, and 72 hours (n=3/time point) and blood was collected by cardiac puncture and carefully perfused with a pressure-controlled pump to maintain microvasculature integrity before removing brain tissue. Blood was centrifuged at 1600×g at room temperature for 10 minutes and plasma was separated. A 500 μl aliquot was diluted 10 fold in a 5% TCA and 10% IPA solution, vortexed and allowed to sit for 10 minutes in order to precipitate proteins. These aliquots were centrifuged at 3000×g for 30 minutes and the supernatant was transferred to clean tubes prior to measuring lithium content using atomic absorption spectroscopy (AAS). Brains were rinsed with PBS, weighed, and an equal volume of concentrated HNO3 was added. The brains were heated in nitric acid solution for 1 hour, allowed to cool to room temperature, then centrifuged at 3000×g for 1 hour. The supernatant was removed and diluted 10 fold in 10% IPA prior to measuring lithium content using AAS.
(§3) The reported parameters include CMAX, TMAX, area under curve (AUC), and apparent terminal half-life (HL_Lambda_z).
(§4) Lithium was measured using atomic absorption spectroscopy (AAS) (Shimadzu AA-6200; Shimadzu Scientific Instruments, Inc., Columbia, Md.). Peak height measurements were carried out referring to values obtained for standards of known concentrations. Lithium measurements were plotted using GraphPad PRISM software (GraphPad Software, Inc., La Jolla, Calif.) as mean±SEM and two tailed t-tests were used to assess the statistical significance at each time point for the pharmacokinetic curves. The criterion for rejection of the null hypothesis was p<0.05.

[2] = for AUC(0-72): 0-72 h; for TMAX: noncompartmental analysis; for time of peak lithium plasma level (FIG. 2-3): post-dose
Protocol: as §1, §2, §3, §4

in vivo [3] = conditions: male, Sprague-Dawley, rat, brain, oral, 4 mEq/kg
Protocol: as §1, §2, §3, §4

in vivo [4] = conditions: male, Sprague-Dawley, rat, plasma, oral, 4 mEq/kg
Protocol: as §1, §2, §3, §4

[5] = previous reports; cited from earlier work
[6] = rats; carbonate vs chloride vs orotate; cited from earlier work
[7] = cited from earlier work
[8] = Brain, rats, 4 mEq/kg oral gavage
[9] = Blood, rats, 4 mEq/kg oral gavage

Compound	AUC(0-72) [1, 8] [µg·h/g]	TMAX [1, 8] [h]	brain lithium level at 24 hours ([1]; brain)	brain lithium level by 72 hours ([1]; brain)	time of peak brain lithium level (FIG. 4-5) ([1]; brain, rats) [h]	CMAX [2, 9] [µg/mL]	AUC(0-72) [2, 9] [µg·h/mL]	TMAX [2, 9] [h]	lithium plasma level by 48 hours ([2]; plasma)	lithium plasma level by 72 hours ([2]; plasma)	time of peak lithium plasma level (FIG. 2-3) ([2]; plasma, rats)	differences in uptake, distribution and excretion of the lithium ion [6]	other results
CC(O)C(=O)[O-].[Li+] (stereo not drawn) [Lithium Lactate, lithium lactate]	152.0	24	around 4 μg/ml	negligible levels	24	4.54	157.2	24	about 0.5 μg/ml	around 0 μg/ml	24 h	–	HL_Lambda_z (apparent terminal half-life) [1, 8]: 13.0 h; HL_Lambda_z (apparent terminal half-life) [2, 9]: 6.9 h
O=C([O-])c1ccccc1O.[Li+] [Lithium Salicylate, lithium salicylate]	153.1	48	–	–	48	2.21	121.8	24	–	–	around 48 hours	–	concentration at 24 h (in vivo [3]): ~2500 ng/mL; concentration at 48 h (in vivo [3]): 3000 ng/mL; concentration at 72 h (in vivo [3]): 2000 ng/mL; concentration at 24 h (in vivo [4]): 2100 ng/mL; concentration at 48 h (in vivo [4]): 2000 ng/mL; concentration at 72 h (in vivo [4]): ~250 ng/mL
O=C([O-])[O-].[Li+].[Li+] [lithium carbonate, reference compound]	–	–	8 µg/mL	about 0.5 μg/ml	24	–	–	–	about 0.5 μg/ml	around 0 μg/ml	24 h	no differences	brain lithium level at 48 hours ([1]; brain, 48 hours): about 3.8 μg/ml; time to elimination [5]: ≤ 48 h; peak lithium plasma level relative to lithium lactate ([2]; plasma, 24 hours): about 2.5 times; lithium plasma level at 24 hours (peak) ([2]; plasma, 24 hours post-dose): about 12 μg/ml
[Cl-].[Li+] [lithium chloride]	–	–	–	–	–	–	–	–	–	–	–	no differences	–
O=C([O-])c1cc(=O)[nH]c(=O)[nH]1.[Li+] [lithium orotate]	–	–	–	–	–	–	–	–	–	–	–	no differences	–
[Li] [lithium]	–	–	–	–	–	–	–	–	–	–	–	–	elimination half-life ([7]; acute treatment): 24 h; CNS levels of lithium relative to plasma levels ([7]; in vivo): approximately 40%; serum levels considered toxic ([7]; in vivo): ≥ 2.0; serum levels that increase the likelihood of toxicity and detrimental effects ([7]; in vivo): greater than 1.5 mEq/l; time to peak plasma levels after overdoses ([7]; overdose): 72 h; elimination half-life ([7]; some chronically treated individuals): ≤ 60 h
